Data on 13 molecules can be found in patent US8946413B2 (Pfizer Inc., priority 2008, dated 2015).

The target in one assay is T1, CCR2 (Homo sapiens, UniProt P41597).
T1 construct: (leukophoresis pack); host or cells: human peripheral blood mononuclear cells (PBMCs) from a normal human leukophoresis pack
Description: hCCR2 (125-I hMCP-1) small molecule binding assay on human PBMCs. As to conditions: for IC50: 125I-MCP-1, human PBMCs. In short, it runs like this: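 Ficoll-isolated human PBMCs pre-incubated 30 min or 1 h with compound at 0.333 μM final (0.67% DMSO), then incubated 30 min at room temperature with 150 pM 125I-hMCP-1 in RPMI/0.1% BSA/20 mM HEPES. Filter-bound radioactivity counted by gamma counter. 100% inhibition defined with 1 μM hMCP-1; IC50 plates run n=2.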

For assay [1], the system named is streptozotocin (STZ)-induced diabetic rat model. Description: Diabetic nephropathy rat model (STZ-induced), 24-hour urinary albumin excretion. As to conditions: STZ diabetic male Wistar rats. In kind it is in vivo. The source says:
A rat model of diabetic nephropathy was used to determine the renal protective effect of pharmacological inhibition of CCR2. The streptozotocin (STZ)-induced diabetic rat model has been extensively used for studying the progression of diabetic renal disease. STZ injection causes immediate destruction of pancreatic β-cells, consequently hyperglycemia and progression of nephropathy similar to that seen in human diabetes mellitus. Diabetes was induced in male Wistar rats by single administration of STZ (45 mp/kg, iv). Three days after the induction of diabetes, fasting blood glucose levels were assessed. Animals with fasting blood glucose levels higher than 200 mg/dL were included in the study. All the treatments were then initiated. 1,5-anhydro-2,3-dideoxy-3-{[(1R,3S)-3-isopropyl-3-({(1S,4S)-5-[6-(trifluoromethyl)pyrimidin-4-yl]-2,5-diazabicyclo[2.2.1]hept-2-yl}carbonyl)cyclopentyl]amino}-4-O-methyl-D-erythro-pentitol was administered at doses of 0.03, 0.3, 1, and 10 mg/kg (mpk) (in the chow) for 11 weeks. 24-hour urine collections were obtained at 1, 4, 8, and 11 weeks after the treatment for assessing 24-hour urinary albumin excretion (UAE).

[2] abbreviates: 30 min preincubation, read-out: IC50 (nM) 30 min preinc.
Setting [3] is: 1 hr preincubation, read-out: IC50 (nM) 1 hr preinc.

Read-outs that look alike come from different tables or passages of the source.

T1 sequence (P41597 whole entry): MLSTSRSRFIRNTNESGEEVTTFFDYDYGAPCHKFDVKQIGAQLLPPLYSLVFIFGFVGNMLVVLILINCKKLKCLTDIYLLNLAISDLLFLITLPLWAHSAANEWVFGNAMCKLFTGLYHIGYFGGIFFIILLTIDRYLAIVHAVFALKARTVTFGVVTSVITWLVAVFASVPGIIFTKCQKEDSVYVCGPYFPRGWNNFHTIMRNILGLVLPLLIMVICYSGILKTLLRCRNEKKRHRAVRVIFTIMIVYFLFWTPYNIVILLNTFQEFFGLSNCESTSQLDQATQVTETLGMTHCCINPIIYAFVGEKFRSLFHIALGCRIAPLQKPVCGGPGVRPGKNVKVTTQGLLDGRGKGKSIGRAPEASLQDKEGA

For the molecule `CO[C@@H]1COCC[C@@H]1N[C@@H]1CC[C@@](C(=O)N2C[C@@H]3C[C@H]2CN3c2cc(C(F)(F)F)ncn2)(C(C)C)C1` [Example 13, 1,5-anhydro-2,3-dideoxy-3-{[(1R,3S)-3-isopropyl-3-({(1S,4S)-5-[6-(trifluoromethyl)pyrimidin-4-yl]-2,5-diazabicyclo[2.2.1]hept-2-yl}carbonyl)cyclopentyl]amino}-4-O-methyl-D-erythro-pentitol], the values for the IC50 on CCR2 (setting [2]) and on CCR2 (setting [3]) were 25.4 nM and 3.68 nM, respectively. For the same molecule, the “24-hour urinary albumin excretion (UAE)” value in assay [1] (0.03 mpk in the chow, week 11) worked out at 2.17±1.31 mg/24 h; in assay [1] (0.3 mpk in the chow, week 8), 1.73±0.69 mg/24 h; in assay [1] (0.3 mpk in the chow, week 11) it was 1.96±0.85 mg/24 h; in assay [1] (1 mpk in the chow, week 8), 1.09±0.20 mg/24 h; in assay [1] (1 mpk in the chow, week 11), 1.66±0.65 mg/24 h; in assay [1] (10 mpk in the chow, week 8) it was 0.71±0.22 mg/24 h. Also, the “24-hour urinary albumin excretion (UAE)” value in assay [1] (10 mpk in the chow, week 11) is on record as 1.02±0.32 mg/24 h.
As to `CO[C@@H]1COCC[C@@H]1N[C@@H]1CC[C@@](C(=O)N2C[C@@H]3C[C@H]2CN3c2cncc(C(F)(F)F)n2)(C(C)(C)O)C1` [Example 59, 1,5-anhydro-2,3-dideoxy-3-{[3-(1-hydroxy-1-methylethyl)-3-({5-[6-(trifluoromethyl)pyrazin-2-yl]-2,5-diazabicyclo[2.2.1]hept-2-yl}carbonyl)cyclopentyl]amino}-4-O-methylpentitol], on CCR2 (setting [2]), the IC50 came out at 17.7 nM.
Turning to `CO[C@@H]1COCC[C@@H]1N[C@@H]1CC[C@@](C(=O)N2C[C@@H]3C[C@H]2CN3c2cc(C(F)(F)F)ccn2)(C2CCOC2)C1` (stereo partly drawn) [Example 60, ((1S,3R)-3-((3S,4S)-3-methoxy-tetrahydro-2H-pyran-4-ylamino)-1-(tetrahydrofuran-3-yl)cyclopentyl)((1S,4S)-5-(4-(trifluoromethyl)pyridin-2-yl)-2,5-diaza-bicyclo[2.2.1]heptan-2-yl)methanone], the 50% inhibitory concentration (IC50) on CCR2 (setting [2]) came out at 2.4 nM.
The same measure, in the same setting: in the case of `CO[C@@H]1COCC[C@@H]1N[C@@H]1CC[C@@](C(=O)N2C[C@@H]3C[C@H]2CN3c2cc(C(F)(F)F)ccn2)(C2CCOC2)C1` (stereo partly drawn) [Example 61, ((1S,3R)-3-((3S,4S)-3-methoxy-tetrahydro-2H-pyran-4-ylamino)-1-(tetrahydrofuran-3-yl)cyclopentyl)((1S,4S)-5-(4-(trifluoromethyl)pyridin-2-yl)-2,5-diaza-bicyclo[2.2.1]heptan-2-yl)methanone] it was 5.9 nM; in that of `CO[C@@H]1COCC[C@@H]1N[C@@H]1CC[C@@](C(=O)N2C[C@@H]3C[C@H]2CN3c2cc(C(F)(F)F)ccn2)(C(O)C(F)(F)F)C1` (stereo partly drawn) [Example 62, ((1S,3R)-3-((3S,4S)-3-methoxy-tetrahydro-2H-pyran-4-ylamino)-1-(2,2,2-trifluoro-1-hydroxyethyl)cyclopentyl)((1S,4S)-5-(4-(trifluoromethyl)pyridin-2-yl)-2,5-diaza-bicyclo[2.2.1]heptan-2-yl)methanone], 1.3 nM.
As for `CO[C@@H]1COCC[C@@H]1N[C@@H]1CC[C@@](C(=O)N2C[C@@H]3C[C@H]2CN3c2cc(C(F)(F)F)ccn2)(C(O)C(F)(F)F)C1` (stereo partly drawn) [Example 63, ((1S,3R)-3-((3S,4S)-3-methoxy-tetrahydro-2H-pyran-4-ylamino)-1-(2,2,2-trifluoro-1-hydroxyethyl)cyclopentyl)((1S,4S)-5-(4-(trifluoromethyl)pyridin-2-yl)-2,5-diaza-bicyclo[2.2.1]heptan-2-yl)methanone], the IC50 at CCR2 (setting [3]) was found to be 1.1 nM.
`CO[C@@H]1COCC[C@@H]1N[C@@H]1CC[C@H](C(=O)N2C[C@@H]3C[C@H]2CN3c2cc(C(F)(F)F)ccn2)C1` [Example 65, ((1S,3R)-3-((3S,4S)-3-methoxy-tetrahydro-2H-pyran-4-ylamino)cyclopentyl)((1S,4S)-5-(4-(trifluoromethyl)pyridin-2-yl)-2,5-diaza-bicyclo[2.2.1]heptan-2-yl)methanone]: the inhibition at 0.3 µM at CCR2 (300 nM, 1 hr preincubation, human PBMCs, read-out: % @300 nM (printed in column IC50 1 hr preinc)) was 1.5%.
For the molecule `CO[C@@H]1COCC[C@@H]1N[C@@H]1CC[C@@](C(=O)N2C[C@@H]3C[C@H]2CN3c2cc(F)cc(C(F)(F)F)c2)(C2CCOC2)C1` (stereo partly drawn) [Example 66], the IC50 at CCR2 (setting [2]) was 1.7 nM.
For `CO[C@@H]1COCC[C@@H]1N[C@@H]1CC[C@@](C(=O)N2C[C@@H]3[C@H](F)[C@H]2CN3c2cc(C(F)(F)F)ccn2)(C(C)C)C1` [Example 67, ((1R,4R,7S)-7-(fluoro)-5-(4-(trifluoromethyl)pyridin-2-yl)-2,5-diaza-bicyclo[2.2.1]heptan-2-yl)((1S,3R)-1-isopropyl-3-((3S,4S)-3-methoxy-tetrahydro-2H-pyran-4-ylamino)cyclopentyl)methanone], at CCR2 (setting [2]), the IC50 was 3.4 nM.
Same read-out and setting: with `CO[C@@H]1COCC[C@@H]1N[C@@H]1CC[C@@](C(=O)N2C[C@@H]3[C@H](O)[C@H]2CN3c2cc(C(F)(F)F)ccn2)(C(C)C)C1` [Example 68, ((1R,4R,7S)-7-hydroxy-5-(4-(trifluoromethyl)pyridin-2-yl)-2,5-diaza-bicyclo[2.2.1]heptan-2-yl)((1S,3R)-1-isopropyl-3-((3S,4S)-3-methoxy-tetrahydro-2H-pyran-4-ylamino)cyclopentyl)methanone] the figure was 5.4 nM; with `CO[C@@H]1COCC[C@@H]1N[C@@H]1CC[C@@](C(=O)N2C[C@@H]3C(F)[C@H]2CN3c2cc(C(F)(F)F)ccn2)(C(C)C)C1` (stereo partly drawn) [Example 69, ((1R,4R)-7-fluoro-5-(4-(trifluoromethyl)pyridin-2-yl)-2,5-diaza-bicyclo[2.2.1]heptan-2-yl)((1S,3R)-1-isopropyl-3-((3S,4S)-3-methoxy-tetrahydro-2H-pyran-4-ylamino)cyclopentyl)methanone], 4.3 nM.
On the same count and under the same terms, with `CO[C@@H]1COCC[C@@H]1N[C@@H]1CC[C@@](C(=O)N2C[C@@H]3C(O)[C@H]2CN3C(=O)OC(C)(C)C)(C(C)C)C1` (stereo partly drawn) [Example 70, (1R,4R,7S)-tert-butyl 7-hydroxy-5-((1S)-1-isopropyl-3-(3-methoxy-tetrahydro-2H-pryan-4-ylamino)cyclopentanecarbonyl)-2,5-diaza-bicyclo[2.2.1]heptane-2-carboxylate] the figure was 8.7 nM.
Take `CO[C@@H]1COCC[C@@H]1N[C@@H]1CC[C@@](C(=O)N2C[C@@H]3C(F)[C@H]2CN3C(=O)OC(C)(C)C)(C(C)C)C1` (stereo partly drawn) [Example 71, tert-butyl 7-fluoro-5-((1S,3R)-1-isopropyl-3-((3S,4S)-3-methoxy-tetrahydro-2H-pyran-4-ylamino)cyclopentanecarbonyl)-2,5-diaza-bicyclo[2.2.1]heptane-2-carboxylate]: the IC50 at CCR2 (setting [2]) is 3.7 nM.
